Test results: PubChem BioAssay AID2060488 (Molecular Pharmacology Branch, DTP, NCI, 2025)

Tested on: 966289-007-R4-J1-PDC complex spheroid viability
Test: Anticancer human tumor 966289-007-R4-J1-PDC patient-derived pancreatic adenocarcinoma cell line growth inhibition [GQUAD]
Details: for IC50: curve of first compound; for viability, T/C: stronger effect = lower value
Summary of the method: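 Multi-cell-type spheroids of tumor cells with HUVEC and mesenchymal stem cells, treated with drug combinations. Concentrations descend in half-log steps from near clinical Cmax, or from 10 microM where Cmax is unknown; viability read-out.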

[1] = second compound 0.0316 µM, first compound 0.0316 µM
[2] = second compound 0.0316 µM, first compound 0.1 µM
[3] = second compound 0.0316 µM, first compound 0.316 µM
[4] = second compound 0.0316 µM, first compound 1 µM
[5] = second compound 0.0316 µM, first compound 3.16 µM
[6] = second compound 0.0316 µM, first compound 10 µM
[7] = second compound 0.1 µM, first compound 0.0316 µM
[8] = second compound 0.1 µM, first compound 0.1 µM
[9] = second compound 0.1 µM, first compound 0.316 µM
[10] = second compound 0.1 µM, first compound 1 µM
[11] = second compound 0.1 µM, first compound 3.16 µM
[12] = second compound 0.1 µM, first compound 10 µM
[13] = second compound 0.316 µM, first compound 0.0316 µM
[14] = second compound 0.316 µM, first compound 0.1 µM
[15] = second compound 0.316 µM, first compound 0.316 µM
[16] = second compound 0.316 µM, first compound 1 µM
[17] = second compound 0.316 µM, first compound 3.16 µM
[18] = second compound 0.316 µM, first compound 10 µM
[19] = second compound 1 µM, first compound 0.0316 µM
[20] = second compound 1 µM, first compound 0.1 µM
[21] = second compound 1 µM, first compound 0.316 µM
[22] = second compound 1 µM, first compound 1 µM
[23] = second compound 1 µM, first compound 3.16 µM
[24] = second compound 1 µM, first compound 10 µM
[25] = second compound 3.16 µM, first compound 0.0316 µM
[26] = second compound 3.16 µM, first compound 0.1 µM
[27] = second compound 3.16 µM, first compound 0.316 µM
[28] = second compound 3.16 µM, first compound 1 µM
[29] = second compound 3.16 µM, first compound 3.16 µM
[30] = second compound 3.16 µM, first compound 10 µM
[31] = second compound 10 µM, first compound 0.0316 µM
[32] = second compound 10 µM, first compound 0.1 µM
[33] = second compound 10 µM, first compound 0.316 µM
[34] = second compound 10 µM, first compound 1 µM
[35] = second compound 10 µM, first compound 3.16 µM
[36] = second compound 10 µM, first compound 10 µM
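Further: spheroids exposed to the agents for seven days before readout.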
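Wherever viability, T/C is given: percent viability relative to DMSO vehicle control wells taken as 100%.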

With CCCS(=O)(=O)Nc1ccc(F)c(C(=O)c2c[nH]c3ncc(-c4ccc(Cl)cc4)cc23)c1F + Cc1cnc(CNC(=O)c2c(=O)c3ccc(N4CCCN(C)CC4)nc3n3c2sc2ccccc23)cn1 the IC50 (second compound 0.0316 µM) was 6.5 µM, the IC50 (second compound 0.1 µM) was < 0.0316 µM and the IC50 (second compound 0.316 µM) was < 0.0316 µM. For the same compound, the IC50 (second compound 1 µM) was < 0.0316 µM, the IC50 (second compound 3.16 µM) was < 0.0316 µM and the IC50 (second compound 10 µM) was < 0.0316 µM. The viability, T/C [1] was 117%, the viability, T/C [2] was 109% and the viability, T/C [3] was 111%. It also gave a viability, T/C [4] of 99.9%, a viability, T/C [5] of 89.8% and a viability, T/C [6] of 27.1%. It also gave a viability, T/C [7] of 34.8%, a viability, T/C [8] of 34.5% and a viability, T/C [9] of 32%. It also gave a viability, T/C [10] of 26.7%, a viability, T/C [11] of 25.5% and a viability, T/C [12] of 16.1%. It also gave a viability, T/C [13] of 11.4%, a viability, T/C [14] of 10.7% and a viability, T/C [15] of 8.91%. The viability, T/C [16] was 8.64%, the viability, T/C [17] was 9.45% and the viability, T/C [18] was 8.17%. For the same compound, the viability, T/C [19] was 6.02%, the viability, T/C [20] was 7.02% and the viability, T/C [21] was 5.64%. The viability, T/C [22] was 4.34%, the viability, T/C [23] was 4.77% and the viability, T/C [24] was 3.64%. For the same compound, the viability, T/C [25] was 4.08%, the viability, T/C [26] was 4.51% and the viability, T/C [27] was 4.86%. It also gave a viability, T/C [28] of 3.92%, a viability, T/C [29] of 3.36% and a viability, T/C [30] of 1.47%. The viability, T/C [31] was 0.08%, the viability, T/C [32] was 0.11% and the viability, T/C [33] was 0.13%. For the same compound, the viability, T/C [34] was 0.26%, the viability, T/C [35] was 0.86% and the viability, T/C [36] was 0.14%.

O=C(c1cc(Cc2n[nH]c(=O)c3ccccc23)ccc1F)N1CCN(C(=O)C2CC2)CC1 + Cc1[nH]c2ccc(F)cc2c1-c1nc2c3cccnc3c3ncccc3c2[nH]1 gave an IC50 (second compound 0.0316 µM) of 4.59 µM, an IC50 (second compound 0.1 µM) of 4.39 µM and an IC50 (second compound 0.316 µM) of 3.3 µM. It also gave an IC50 (second compound 1 µM) of 4.38 µM, an IC50 (second compound 3.16 µM) of 2.99 µM and an IC50 (second compound 10 µM) of 2.79 µM. For the same compound, the viability, T/C [1] was 113%, the viability, T/C [2] was 102% and the viability, T/C [3] was 111%. It also gave a viability, T/C [4] of 101%, a viability, T/C [5] of 68.6% and a viability, T/C [6] of 11.5%. The viability, T/C [7] was 107%, the viability, T/C [8] was 103% and the viability, T/C [9] was 111%. It also gave a viability, T/C [10] of 106%, a viability, T/C [11] of 64.1% and a viability, T/C [12] of 14.8%. The viability, T/C [13] was 93%, the viability, T/C [14] was 107% and the viability, T/C [15] was 106%. The viability, T/C [16] was 108%, the viability, T/C [17] was 51.4% and the viability, T/C [18] was 15%. The viability, T/C [19] was 95.2%, the viability, T/C [20] was 101% and the viability, T/C [21] was 108%. The viability, T/C [22] was 109%, the viability, T/C [23] was 64.5% and the viability, T/C [24] was 13.1%. For the same compound, the viability, T/C [25] was 104%, the viability, T/C [26] was 110% and the viability, T/C [27] was 111%. The viability, T/C [28] was 105%, the viability, T/C [29] was 47.2% and the viability, T/C [30] was 7.55%. It also gave a viability, T/C [31] of 104%, a viability, T/C [32] of 103% and a viability, T/C [33] of 112%. It also gave a viability, T/C [34] of 99.8%, a viability, T/C [35] of 44% and a viability, T/C [36] of 4.64%.
